Test results from US10792633B2, “Composition comprising a fluorine-containing surfactant” (HWK-Kronbichler GmbH, priority 2016, dated 2020).
Values after ≈ are worked out from the molar mass of the structure shown. Where two headings read alike, the source gives them in different places. Marks after values point to notes of the source that are not given here. One block for each molecule: values may come before it.

What was measured:
Format in all cases: physicochemical
[1] = Measurement of surface tension at suspended drop (Drop Shape Analyser DSA 25)
Protocol: The surface tension was determined at suspended drop using a “Drop Shape Analyser DSA 25” of the Krüss corporation. The drop volume at most measurements amounted to approximately 5 μl. […] Each sample was measured a total of ten times. The standard deviations are marked by s in the table shown below. In the measurements at a concentration of 0.05 wt % surfactant, larger drop volumes were used in some cases to obtain a better reproducibility of the measurement results.

[2] = Determining the solubility in water; conditions: for solubility at 5 min: water, 23 °C, thermodynamic from solid
Protocol: The suspension was added to the ultrasound bath for 5 minutes and was centrifuged for 20 minutes. The supernatant was then weighed and was rinsed with argon for 5 minutes to remove any possibly dissolved oxygen. […] The experiment was performed at approximately 23° C.

[3] = Solubility in organic solvents
[4] = Determination of the static surface tension in water (Example 10); conditions: mean of 10
Excerpt: The determination of the static surface tension for 3-(1H,1H,2H,2H-perfluorooctyl)-2-((1H,1H,2H,2H-perfluorooctyl)thio)-1-methyl-1H-imidazolium chloride in water produced the values indicated in the following Table 6 for the surface tension (OFS) in […] at different concentrations c in wt %. The values for OFS represent the mean value from 10 measurements. The standard deviation S [mN/m] for these values is likewise indicated.

[5] = Use as an emulsifying agent for Teflon (stability of the suspension in water); conditions: 0.100 g surfactant and 0.200 g Teflon 1 μm in water
Protocol: A solution of 10 ml water, 0.100 g 1-methyl-2-((1H,1H,2H,2H-perfluorooctyl)thio)-1H-imidazolium-2-acrylamido-2-methylpropanesulfonate was dissolved in 10 ml water and 0.200 g Teflon 1 μm (Sigmal-Aldrich) were subsequently added to this solution. A suspension was formed in this process that remained stable for at least 4 hours. After 2 days a white powder had been deposited on the bottom.

[6] = surfactant in water 0.05 wt %, n = 10, drop approx. 5 μl, * 8 μl, ** 20 μl
[7] = surfactant in water 0.5 wt %, n = 10, 24.5-25.1° C.

Molecule: 1-methyl-2-((1H,1H,2H,2H-perfluorooctyl)thio)-1H-imidazolium-2-(methacryloyloxy)ethane-1-sulfonate [Synthesis Example 1]
OFS (surface tension) ([1]; c 0.005 % in water): 70.28 mN/m | OFS (surface tension) ([1]; c 0.01 % in water): 32.11 mN/m | OFS (surface tension) ([1]; c 0.1 % in water): 20.8 mN/m | OFS (surface tension) [1, 6]: 23.24 mN/m | OFS (surface tension) [1, 7]: 16.22 mN/m | Solubility in water ([2]; approximately 23° C., ultrasound bath 5 minutes, centrifuged 20 minutes): approximately 430 g/L

Solubility in 3M Novec 71 IPA [3]: 20.5 mg/mL
Molecule: 1-methyl-2-((perfluorohexylethyl)thio)imidazoliumiodide-Co-1-iodoperfluorooctylane [1-iodoperfluorooctyl-Co-complex]

Molecule: CS(=O)(=O)O.Cn1ccnc1SCCC(F)(F)C(F)(F)C(F)(F)C(F)(F)C(F)(F)C(F)(F)F [1-methyl-2-((1H,1H,2H,2H-perfluorooctyl)thio)-1H-imidazolium-methanesulfonate]
OFS (surface tension) [1, 6]: 24.39 mN/m | OFS (surface tension) [1, 7]: 16.21 mN/m

Molecule: CC1(C)C2CCC1(CS(=O)(=O)O)C(=O)C2.Cn1ccnc1SCCC(F)(F)C(F)(F)C(F)(F)C(F)(F)C(F)(F)C(F)(F)F [1-methyl-2-((1H,1H,2H,2H-perfluorooctyl)thio)imidazolium-(±)-camphor-10-sulfonate]
Solubility in water ([2]; values not exact): >4000 mg/mL

Molecule: Br.Cn1ccnc1SCCC(F)(F)C(F)(F)C(F)(F)C(F)(F)C(F)(F)C(F)(F)F [1-methyl-2-((1H,1H,2H,2H-perfluorooctyl)thio)imidazoliumbromide]
Solubility in water ([2]; values not exact): 1200 mg/mL

Molecule: Cl.Cn1ccnc1SCCC(F)(F)C(F)(F)C(F)(F)C(F)(F)C(F)(F)C(F)(F)F [1-methyl-2-((1H,1H,2H,2H-perfluorooctyl)thio)imidazoliumchloride]
Solubility in water ([2]; values not exact): 1750 mg/mL

OFS (static surface tension) ([4]; c 0.0025 wt % in water): 40.74 mN/m | OFS (static surface tension) ([4]; c 0.0050 wt % in water): 21.29 mN/m | OFS (static surface tension) ([4]; c 0.0075 wt % in water): 18.89 mN/m | OFS (static surface tension) ([4]; c 0.0100 wt % in water): 16.29 mN/m | OFS (static surface tension) ([4]; c 0.0250 wt % in water): 14.43 mN/m | OFS (static surface tension) ([4]; c 0.0500 wt % in water): 15.05 mN/m | OFS (static surface tension) ([4]; c 0.0750 wt % in water): 15.02 mN/m | OFS (static surface tension) ([4]; c 0.1000 wt % in water): 15 mN/m | OFS (static surface tension) ([4]; c 0.2500 wt % in water): 15.5 mN/m | OFS (static surface tension) ([4]; c 0.5000 wt % in water): 14.5 mN/m
Molecule: Cn1cc[n+](CCC(F)(F)C(F)(F)C(F)(F)C(F)(F)C(F)(F)C(F)(F)F)c1SCCC(F)(F)C(F)(F)C(F)(F)C(F)(F)C(F)(F)C(F)(F)F.[Cl-] [3-(1H,1H,2H,2H-perfluorooctyl)-2-((1H,1H,2H,2H-perfluorooctyl)thio)-1-methyl-1H-imidazolium chloride]

OFS (surface tension) [1, 6]: 64.87** mN/m | OFS (surface tension) [1, 7]: 46.42 mN/m
Molecule: N.O=C(O)C(F)(F)C(F)OC(F)(F)C(F)(F)C(F)(F)OC(F)(F)F (centres unmarked) [Ammonium-4,8-dioxa-3H-perfluorononanoate, reference compound]

Molecule: O=C(O)C(F)(F)C(F)(F)C(F)(F)C(F)(F)C(F)(F)C(F)(F)C(F)(F)F [Perfluorooctanoic acid, reference compound]
OFS (surface tension) [1, 6]: 55.68** mN/m | OFS (surface tension) [1, 7]: 16 mN/m

Molecule: C=CC(=O)NC(C)(C)CS(=O)(=O)O.Cn1ccnc1SCCC(F)(F)C(F)(F)C(F)(F)C(F)(F)C(F)(F)C(F)(F)F [Synthesis Example 2, 1-methyl-2-((1H,1H,2H,2H-perfluorooctyl)thio)-1H-imidazolium-2-acrylamido-2-methylpropanesulfonate]
time the Teflon suspension remained stable [5]: at least 4 hours | soluble in water (in words) [2]: soluble in water

Molecule: Cn1cc[n+](CCCS(=O)(=O)[O-])c1SCCC(F)(F)C(F)(F)C(F)(F)C(F)(F)C(F)(F)C(F)(F)F [Synthesis Example 6, 3-(1-methyl-2-((1H,1H,2H,2H-perfluorooctyl)thio)imidazolium-3-yl) propane-1-sulfonate]
OFS (surface tension) [1, 6]: 29.74* mN/m | OFS (surface tension) [1, 7]: 24.94 mN/m | solubility at 5 min ([2]; values not exact, read-out: Solubility in water): 160 mg/mL (≈ 275 mM) | solubility at 5 min ([2]; read-out: water solubility): ~160 mg/mL (≈ 275 mM)
